Assay results as given in publication PMC4546622, “Structure of the Glycosyltransferase Ktr4p from Saccharomyces cerevisiae” (PLoS ONE, 2015).

How the values were obtained:
[1] = molecular target: T1, Ktr4p (Saccharomyces cerevisiae, UniProt P38131); test: coupled phosphatase (ENTPD3/CD39L3) malachite green assay; type: biochemical; details: 10 μM enzyme, 10 mM MnCl2, 10 mM CaCl2, pH 7.5, 20°C
T1 construct: gene KTR4; lumenal domain (stalk plus catalytic), residues Asn-33 to Tyr-464; N-terminal His6 tag cut off with TEV protease; E. coli Rosetta-gami 2 (DE3); monomer fraction from SEC
T1 sequence (P38131 33-464): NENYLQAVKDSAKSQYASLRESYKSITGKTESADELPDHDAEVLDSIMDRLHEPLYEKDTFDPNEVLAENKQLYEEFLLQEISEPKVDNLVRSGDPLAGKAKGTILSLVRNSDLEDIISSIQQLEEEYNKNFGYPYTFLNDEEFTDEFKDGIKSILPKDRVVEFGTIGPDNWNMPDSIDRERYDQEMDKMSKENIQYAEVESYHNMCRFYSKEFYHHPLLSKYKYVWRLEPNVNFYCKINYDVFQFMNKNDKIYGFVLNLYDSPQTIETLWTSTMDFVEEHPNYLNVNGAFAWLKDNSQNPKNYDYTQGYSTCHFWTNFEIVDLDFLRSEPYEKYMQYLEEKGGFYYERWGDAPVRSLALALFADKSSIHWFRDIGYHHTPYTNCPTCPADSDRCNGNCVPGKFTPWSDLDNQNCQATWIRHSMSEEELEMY

[2] = molecular target: T1, Ktr4p; test: X-ray crystal structure, […] Å; type: binding; details: with Mn2+ in the active site; 5 mM GDP and 5 mM MnCl2; pH 6.5; 4°C
[3] = molecular target: the molecule itself; test: SEC; Superdex 200 16/60, 10 mM HEPES pH 7.4, 150 mM NaCl; final purification step; monomer and dimer peaks at a ratio of ~2:1, monomer peak the largest

Nc1nc2c(ncn2[C@@H]2O[C@H](COP(=O)(O)OP(=O)(O)O[C@H]3O[C@H](CO)[C@@H](O)[C@H](O)[C@@H]3O)[C@@H](O)[C@H]2O)c(=O)[nH]1 [GDP-mannose]
coupled phosphatase (ENTPD3/CD39L3) malachite green assay ([1]; sugar donor, 50 μM, 500 μM acceptor): GDP-mannose is a suitable sugar donor

Nc1nc2c(ncn2[C@@H]2O[C@H](COP(=O)(O)OP(=O)(O)O)[C@@H](O)[C@H]2O)c(=O)[nH]1 [GDP]
X-ray crystal structure, 1.9 Å [2]: 5a08 for the apo structure and 5a07 for the GDP-complex structure

CO[C@H]1O[C@H](CO)[C@@H](O)[C@H](O)[C@@H]1O [methyl-α-mannoside]
coupled phosphatase (ENTPD3/CD39L3) malachite green assay ([1]; sugar acceptor, 500 μM, 50 μM GDP-mannose): we observe the most efficient activity with methyl-α-mannoside

B1: Ktr4p lumenal domain (residues Asn-33 to Tyr-464; stalk domain and catalytic domain) (domain or fragment, S. cerevisiae, UniProt P38131 33-464, looked up)
chain: NENYLQAVKDSAKSQYASLRESYKSITGKTESADELPDHDAEVLDSIMDRLHEPLYEKDTFDPNEVLAENKQLYEEFLLQEISEPKVDNLVRSGDPLAGKAKGTILSLVRNSDLEDIISSIQQLEEEYNKNFGYPYTFLNDEEFTDEFKDGIKSILPKDRVVEFGTIGPDNWNMPDSIDRERYDQEMDKMSKENIQYAEVESYHNMCRFYSKEFYHHPLLSKYKYVWRLEPNVNFYCKINYDVFQFMNKNDKIYGFVLNLYDSPQTIETLWTSTMDFVEEHPNYLNVNGAFAWLKDNSQNPKNYDYTQGYSTCHFWTNFEIVDLDFLRSEPYEKYMQYLEEKGGFYYERWGDAPVRSLALALFADKSSIHWFRDIGYHHTPYTNCPTCPADSDRCNGNCVPGKFTPWSDLDNQNCQATWIRHSMSEEELEMY
notes: Cloned in pNIC28-Bsa4 with a His6 tag and a TEV site N-terminal of the construct; the tag was removed with TEV protease; A few residues of the vector probably remain at the N-terminus after cleavage (surmised from the forward primer); Residues 33-69/70 are not visible in the structures; source: E. coli Rosetta-gami 2 (DE3), purified (Ni-NTA IMAC, TEV cleavage, second IMAC pass, Superdex 200 SEC); …
stoichiometry N [3]: 2
